The text below walks through data of ChEMBL document CHEMBL4229328, “Quest for Novel Chemical Entities through Incorporation of Silicon in Drug Scaffolds” (J Med Chem, 2018).

As usually defined, the EC50 is the midpoint of the concentration-response curve. Broadly, the logD is lipophilicity at a set pH, counting ionised and neutral species. A higher logD goes with higher lipophilicity. A word on the Ki: it is the dissociation constant of the complex between target and ligand, obtained from inhibition or displacement. As a reminder, the IC50 is the concentration that inhibits the measured activity by half.

Series [1] addresses T1, Protein Gpr81 (Rattus norvegicus, UniProt G3V906).
T1 sequence (G3V906 whole entry): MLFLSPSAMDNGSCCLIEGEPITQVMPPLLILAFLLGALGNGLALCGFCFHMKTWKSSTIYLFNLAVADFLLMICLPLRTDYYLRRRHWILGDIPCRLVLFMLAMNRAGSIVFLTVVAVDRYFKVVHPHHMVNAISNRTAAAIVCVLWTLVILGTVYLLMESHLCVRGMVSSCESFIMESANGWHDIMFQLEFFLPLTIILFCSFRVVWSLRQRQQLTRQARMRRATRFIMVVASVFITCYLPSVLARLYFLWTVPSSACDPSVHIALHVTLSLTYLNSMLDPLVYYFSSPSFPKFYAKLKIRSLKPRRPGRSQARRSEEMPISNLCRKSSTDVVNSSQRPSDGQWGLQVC
Kind of series: Agonist activity at rat GPR81 expressed in T-REx-CHO cells assessed as inhibition of forskolin-stimulated cAMP accumulation preincubated for 30 mins followed by forskolin stimulation and measured after 20 mins by TR-FRET assay. In kind it is cell-based.

The target of series [2] is Hydroxycarboxylic acid receptor 2 (Rattus norvegicus, UniProt Q80Z39). Briefly: Agonist activity at rat GPR109A expressed in T-REx-CHO cells assessed as inhibition of forskolin-stimulated cAMP accumulation preincubated for 30 mins followed by forskolin stimulation and measured after 20 mins by TR-FRET assay. It is filed as functional, cell-based. Background: cAMP levels reflect the balance of adenylyl cyclase and phosphodiesterase activity.

Series [3] in a line: Octanol-water distribution co-efficient, log D of the compound at pH 7.4. It is filed as physicochemical.
Series [4] has as its target Sigma non-opioid intracellular receptor 1 (Cavia porcellus, UniProt Q60492). Briefly: Displacement of [3H]-(+)pentazocine from sigma-1 receptor in guinea pig brain membranes after 180 mins by scintillation counting method. It is filed as cell membranes, Membrane. (In general: Loss of bound radioactivity is the signal in a displacement assay; it reports binding, not function.)

In series [5] the target is T2, Sigma intracellular receptor 2 (Rattus norvegicus, UniProt Q5U3Y7).
T2 sequence (Q5U3Y7 whole entry): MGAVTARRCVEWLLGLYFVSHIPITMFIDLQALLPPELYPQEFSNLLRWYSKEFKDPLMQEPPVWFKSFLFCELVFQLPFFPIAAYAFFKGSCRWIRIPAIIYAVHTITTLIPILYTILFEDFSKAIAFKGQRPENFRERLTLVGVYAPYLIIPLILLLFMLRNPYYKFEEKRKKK
Briefly: Displacement of [3H]-DTG from sigma-2 receptor in rat liver membranes after 180 mins by scintillation counting method. It is filed as cell membranes, Membrane.

Series [6] addresses Chymotrypsinogen A (Bos taurus, UniProt P00766). Kind of series: Inhibition of bovine alpha-chymotrypsin using succinyl Ala-Ala-Pro-Phe-p-nitroanilide as substrate after 1 hr by Dixon plot analysis.
Series [7] can be described thus: Selectivity ratio of Ki for sigma-2 receptor in rat liver membranes to Ki for sigma-1 receptor in guinea pig brain membranes. In kind it is cell membranes.
Series [8] concerns the target Angiotensin-converting enzyme (Homo sapiens, UniProt P12821). Kind of series: Inhibition of human ACE using Hip-His-Leu-OH as substrate after 1 hr by fluorimetric method.
Series [9] concerns Escherichia coli. In kind it is functional, C3000 ATCC 15597.
Series [10] deals with Staphylococcus aureus. In kind it is functional.
Series [11] concerns Pseudomonas aeruginosa. It is filed as functional, ATCC 10145.
The test system of series [12] is Enterococcus faecalis. In kind it is functional, ATCC 19433.
In series [13] the target is Histone deacetylase 1 (Homo sapiens, UniProt Q13547). Briefly: Inhibition of human recombinant HDAC1 using Ac-Leu-Gly-Lys(Ac)-AMC as substrate preincubated for 30 mins followed by substrate addition and measured after 15 to 30 mins.
Series [14] concerns the target Histone deacetylase 2 (Homo sapiens, UniProt Q92769).
Series [15] addresses E3 ubiquitin-protein ligase XIAP (Homo sapiens, UniProt P98170). Briefly: Inhibition of N-terminal His-tagged XIAP BIR3 domain (241 to 356 residues) (unknown origin) using fluorescein labeled SMAC peptide as substrate after 60 mins by TR-FRET assay. In general terms: In TR-FRET formats the signal depends on donor and acceptor labels being close together.
The target of series [16] is E3 ubiquitin-protein ligase XIAP (Homo sapiens, UniProt P98170, C202A/C213G). Kind of series: Inhibition of N-terminal His-tagged XIAP BIR2-3 domain (125 to 356 residues) C202A/C213G mutant (unknown origin) using fluorescein labeled SMAC peptide as substrate after 60 mins by HTRF assay.
In series [17] the target is Sodium-dependent serotonin transporter (Homo sapiens, UniProt P31645). In kind it is cell-based, HEK293.
Series [18] concerns the target Sodium-dependent noradrenaline transporter (Homo sapiens, UniProt P23975). Kind of series: Inhibition of human NET expressed in MDCK cells assessed as decrease in [3H]-noradrenaline reuptake after 10 mins by scintillation counting method. In kind it is cell-based.
In series [19] the target is Sodium-dependent dopamine transporter (Homo sapiens, UniProt Q01959). Briefly: Inhibition of human DAT expressed in CHOK1 cells assessed as decrease in [3H]-dopamine reuptake after 10 mins by scintillation counting method. It is filed as cell-based.
The test system of series [20] is MCF7. Briefly: Cytotoxicity against human MCF7 cells after 24 hrs. To be noted: MCF7, 24 h. It is filed as functional, cell-based.
Series [21] concerns HT-29. Briefly: Cytotoxicity against human HT-29 cells after 24 hrs. It is filed as functional, cell-based. To be noted: HT-29, 24 h.

Structures are written as SMILES. In brackets after ≈: the same amount, converted by molar mass.

Sequence of Sigma non-opioid intracellular receptor 1 (Q60492 whole entry): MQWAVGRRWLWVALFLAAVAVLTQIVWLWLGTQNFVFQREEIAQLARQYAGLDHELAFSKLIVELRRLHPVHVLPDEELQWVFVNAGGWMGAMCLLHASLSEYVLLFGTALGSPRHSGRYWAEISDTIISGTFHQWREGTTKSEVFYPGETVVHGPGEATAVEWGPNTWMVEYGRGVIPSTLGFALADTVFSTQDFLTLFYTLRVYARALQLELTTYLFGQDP
Sequence of Hydroxycarboxylic acid receptor 2 (Q80Z39 whole entry): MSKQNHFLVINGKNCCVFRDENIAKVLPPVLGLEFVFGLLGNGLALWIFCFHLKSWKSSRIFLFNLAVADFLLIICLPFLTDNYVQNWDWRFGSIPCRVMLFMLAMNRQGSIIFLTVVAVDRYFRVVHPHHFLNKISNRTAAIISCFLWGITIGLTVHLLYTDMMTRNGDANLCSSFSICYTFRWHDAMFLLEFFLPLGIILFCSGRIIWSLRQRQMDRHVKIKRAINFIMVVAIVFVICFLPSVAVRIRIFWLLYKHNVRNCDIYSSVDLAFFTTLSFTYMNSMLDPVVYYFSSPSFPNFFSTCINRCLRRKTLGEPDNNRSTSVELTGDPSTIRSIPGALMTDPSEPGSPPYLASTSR
Sequence of Histone deacetylase 1 (Q13547 whole entry): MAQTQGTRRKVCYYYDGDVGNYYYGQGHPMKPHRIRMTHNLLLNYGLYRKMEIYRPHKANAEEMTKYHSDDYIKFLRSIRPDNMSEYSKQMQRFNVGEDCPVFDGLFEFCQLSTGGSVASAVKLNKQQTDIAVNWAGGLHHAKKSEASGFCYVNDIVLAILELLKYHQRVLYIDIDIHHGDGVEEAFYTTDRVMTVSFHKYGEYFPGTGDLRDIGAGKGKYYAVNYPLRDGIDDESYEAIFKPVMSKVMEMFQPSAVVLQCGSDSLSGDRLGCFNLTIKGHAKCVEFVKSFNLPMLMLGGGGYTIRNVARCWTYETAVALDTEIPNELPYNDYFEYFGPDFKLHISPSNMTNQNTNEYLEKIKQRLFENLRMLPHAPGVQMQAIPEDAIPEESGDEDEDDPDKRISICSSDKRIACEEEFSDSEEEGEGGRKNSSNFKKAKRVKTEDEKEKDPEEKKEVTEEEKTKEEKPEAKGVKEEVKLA
Sequence of Sodium-dependent noradrenaline transporter (P23975 whole entry): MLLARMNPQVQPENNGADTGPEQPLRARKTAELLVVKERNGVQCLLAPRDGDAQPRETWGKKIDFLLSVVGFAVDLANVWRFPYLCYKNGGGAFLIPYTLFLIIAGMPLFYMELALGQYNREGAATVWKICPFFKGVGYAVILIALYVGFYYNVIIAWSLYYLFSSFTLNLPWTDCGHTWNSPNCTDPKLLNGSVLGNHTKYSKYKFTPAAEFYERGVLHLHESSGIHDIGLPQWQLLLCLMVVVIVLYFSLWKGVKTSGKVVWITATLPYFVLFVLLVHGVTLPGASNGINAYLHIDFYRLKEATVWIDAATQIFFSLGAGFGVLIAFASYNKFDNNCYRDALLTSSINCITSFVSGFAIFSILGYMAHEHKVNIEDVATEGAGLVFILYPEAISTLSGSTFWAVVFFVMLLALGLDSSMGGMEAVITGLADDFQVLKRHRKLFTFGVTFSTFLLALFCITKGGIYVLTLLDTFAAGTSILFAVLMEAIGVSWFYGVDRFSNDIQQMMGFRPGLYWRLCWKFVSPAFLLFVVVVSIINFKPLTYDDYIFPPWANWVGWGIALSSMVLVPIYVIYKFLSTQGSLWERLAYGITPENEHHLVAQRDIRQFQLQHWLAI
Sequence of Sodium-dependent dopamine transporter (Q01959 whole entry): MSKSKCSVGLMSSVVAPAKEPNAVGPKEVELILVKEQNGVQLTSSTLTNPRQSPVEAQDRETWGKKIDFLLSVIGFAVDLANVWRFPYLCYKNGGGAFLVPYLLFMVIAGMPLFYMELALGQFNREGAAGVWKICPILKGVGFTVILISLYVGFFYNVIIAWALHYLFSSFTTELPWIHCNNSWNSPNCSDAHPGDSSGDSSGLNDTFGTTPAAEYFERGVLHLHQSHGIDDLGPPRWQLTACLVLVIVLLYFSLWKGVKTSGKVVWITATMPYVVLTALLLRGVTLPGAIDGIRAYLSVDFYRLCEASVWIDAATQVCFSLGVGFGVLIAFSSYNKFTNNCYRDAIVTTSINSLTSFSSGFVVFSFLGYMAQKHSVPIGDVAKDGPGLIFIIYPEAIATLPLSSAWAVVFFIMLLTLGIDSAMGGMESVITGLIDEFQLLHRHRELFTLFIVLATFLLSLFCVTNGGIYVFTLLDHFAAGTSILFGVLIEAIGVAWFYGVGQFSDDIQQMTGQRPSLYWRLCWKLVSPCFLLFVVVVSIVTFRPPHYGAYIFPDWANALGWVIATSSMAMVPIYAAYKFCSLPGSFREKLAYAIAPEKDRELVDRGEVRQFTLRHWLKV
Sequence of Histone deacetylase 2 (Q92769 whole entry, the tested form may be a part): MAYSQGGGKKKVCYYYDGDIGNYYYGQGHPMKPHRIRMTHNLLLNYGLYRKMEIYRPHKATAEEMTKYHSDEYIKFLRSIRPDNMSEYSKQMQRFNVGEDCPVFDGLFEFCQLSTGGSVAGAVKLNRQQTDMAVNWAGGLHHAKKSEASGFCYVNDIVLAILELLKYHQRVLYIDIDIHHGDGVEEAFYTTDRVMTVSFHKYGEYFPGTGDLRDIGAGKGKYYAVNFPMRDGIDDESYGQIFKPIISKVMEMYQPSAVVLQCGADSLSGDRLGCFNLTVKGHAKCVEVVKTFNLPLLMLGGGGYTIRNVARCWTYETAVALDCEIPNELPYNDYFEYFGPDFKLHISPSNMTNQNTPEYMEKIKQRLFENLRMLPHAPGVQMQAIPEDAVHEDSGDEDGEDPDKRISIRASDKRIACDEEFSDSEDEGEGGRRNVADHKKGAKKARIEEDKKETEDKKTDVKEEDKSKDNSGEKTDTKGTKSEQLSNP
Sequence of Angiotensin-converting enzyme (P12821 whole entry): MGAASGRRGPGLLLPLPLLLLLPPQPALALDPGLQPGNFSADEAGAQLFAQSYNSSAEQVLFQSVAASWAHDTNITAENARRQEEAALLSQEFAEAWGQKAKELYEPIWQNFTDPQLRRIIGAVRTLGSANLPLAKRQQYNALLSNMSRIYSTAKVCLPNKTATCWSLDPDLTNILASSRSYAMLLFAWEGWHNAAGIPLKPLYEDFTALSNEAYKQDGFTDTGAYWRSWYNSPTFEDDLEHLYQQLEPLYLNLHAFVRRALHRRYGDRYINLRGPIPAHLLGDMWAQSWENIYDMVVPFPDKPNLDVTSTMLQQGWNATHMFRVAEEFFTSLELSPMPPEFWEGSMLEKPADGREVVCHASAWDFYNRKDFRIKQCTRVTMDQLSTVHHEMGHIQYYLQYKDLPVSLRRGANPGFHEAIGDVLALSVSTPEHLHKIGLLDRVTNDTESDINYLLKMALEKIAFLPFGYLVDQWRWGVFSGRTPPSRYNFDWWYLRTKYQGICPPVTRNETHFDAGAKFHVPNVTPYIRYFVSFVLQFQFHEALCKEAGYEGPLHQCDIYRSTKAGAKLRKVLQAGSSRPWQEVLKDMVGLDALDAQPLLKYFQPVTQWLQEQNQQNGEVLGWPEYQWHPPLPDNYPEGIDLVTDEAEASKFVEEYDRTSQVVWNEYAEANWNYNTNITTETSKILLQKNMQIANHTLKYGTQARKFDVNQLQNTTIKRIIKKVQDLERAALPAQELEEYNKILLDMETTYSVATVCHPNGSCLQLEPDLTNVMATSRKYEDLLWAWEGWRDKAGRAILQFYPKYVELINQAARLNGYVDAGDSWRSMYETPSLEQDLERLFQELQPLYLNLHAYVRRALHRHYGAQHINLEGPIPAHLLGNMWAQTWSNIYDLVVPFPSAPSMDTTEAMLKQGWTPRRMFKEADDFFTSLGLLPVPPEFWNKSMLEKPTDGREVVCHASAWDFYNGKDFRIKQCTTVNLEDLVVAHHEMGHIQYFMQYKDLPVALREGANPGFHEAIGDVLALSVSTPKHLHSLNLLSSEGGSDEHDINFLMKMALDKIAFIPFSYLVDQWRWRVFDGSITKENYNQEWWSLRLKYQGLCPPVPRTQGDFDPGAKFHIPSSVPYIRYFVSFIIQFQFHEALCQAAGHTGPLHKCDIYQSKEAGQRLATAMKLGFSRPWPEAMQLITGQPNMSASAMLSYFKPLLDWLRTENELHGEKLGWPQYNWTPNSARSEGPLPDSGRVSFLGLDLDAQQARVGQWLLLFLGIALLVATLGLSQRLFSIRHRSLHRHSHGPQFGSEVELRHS
Sequence of E3 ubiquitin-protein ligase XIAP (Homo sapiens, UniProt P98170, C202A/C213G) (P98170 whole entry C202A/C213G, the tested form may be a part): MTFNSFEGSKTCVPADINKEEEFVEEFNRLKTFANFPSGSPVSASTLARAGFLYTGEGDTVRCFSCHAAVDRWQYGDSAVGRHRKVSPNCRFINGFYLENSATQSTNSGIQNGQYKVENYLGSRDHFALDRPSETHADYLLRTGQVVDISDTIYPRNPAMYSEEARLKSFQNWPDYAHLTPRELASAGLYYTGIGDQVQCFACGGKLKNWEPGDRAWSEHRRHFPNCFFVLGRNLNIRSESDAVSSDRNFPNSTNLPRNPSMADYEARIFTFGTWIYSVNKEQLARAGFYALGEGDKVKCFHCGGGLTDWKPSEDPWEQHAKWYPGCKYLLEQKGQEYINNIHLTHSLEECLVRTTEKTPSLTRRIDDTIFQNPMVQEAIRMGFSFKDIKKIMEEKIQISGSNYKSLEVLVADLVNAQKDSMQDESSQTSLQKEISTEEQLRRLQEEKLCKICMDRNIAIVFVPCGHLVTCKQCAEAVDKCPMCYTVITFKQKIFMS
Sequence of E3 ubiquitin-protein ligase XIAP (Homo sapiens, UniProt P98170) (P98170 whole entry, the tested form may be a part): as the sequence (P98170 whole entry C202A/C213G, the tested form may be a part) above, with A202C, G213C counted along it

As to `CCOc1cc(Cl)c(C(=O)NC(=O)Nc2nc3c(s2)CCCC3)cc1N1CCOCC1`, the EC50 in series [1] stood at 240 nM; in [2], 2100 nM. The logD in [3] came to 4.2.
As for `c1ccc(CN2CCC3(CCCc4ccccc43)CC2)cc1`, the Ki came out at 2 nM in [4] and 44 nM in [5].
Consider `C[C@H](C[Si](O)(O)[C@H](Cc1ccccc1)NC(=O)[C@@H]1CCCN1)C(N)=O`, for which, in series [6], affinity was put at a Ki of 107 nM.
With `CC(C)CCN1CC[Si]2(CCCc3ccccc32)CC1`, the figures for the Ki in [4] and in [5] were 0.3 nM and 19 nM, respectively. In addition, in series [7], the Ratio Ki stood at 63.
In the case of `C[C@H](CS)C(=O)N1C[Si](C)(C)C[C@H]1C(=O)O`, half-maximal inhibition in [8] (IC50) was put at 43 nM.
On to `CCOc1cc(Cl)c(C(=O)NC(=O)Nc2nc3c(s2)C[Si](C)(c2ccc(OC)cc2)CC3)cc1N1CCOCC1` (centres undefined), for which the EC50 was found to be 1000 nM in [1] and 1200 nM in series [2]. For the same compound, the log distribution coefficient (logD) in [3] was determined as 4.8.
`CC(C)(C)O` [TERT-BUTANOL]: the MLC stood at 13.54% in series [9], 10.61% in [10], 9.79% in series [11] and 13.33% in series [12].
On to `CC(C)(O)c1ccccc1`, for which the MLC was found to be 0.96% in series [9], 0.78% in series [10], 0.71% in [11] and 0.93% in series [12].
Take `C[Si](O)(O)CCCCCCC(=O)Nc1ccccc1`: the IC50 in series [13] was 2700 nM; in series [14], 6.3 µM.
In the case of `CN[C@@H](C)C(=O)N[C@@H](Cc1ccc(C#CC(=O)N[C@H]2C[C@@H](C(=O)N[C@@H]3CCCc4ccccc43)N(C(=O)[C@@H](NC(=O)[C@H](C)NC)C(C)(C)C)C2)cc1)C(=O)N1C[Si](C)(C)C[C@H]1C(=O)N[C@@H]1CCCc2ccccc21`, the IC50 in series [15] stood at 3 nM; in series [16] it was 4 nM.
In the case of `COc1ccc(CN2CC[Si]3(CCCc4ccccc43)CC2)cc1`, the values for the Ki in series [4] and in [5] were 2.7 nM and 460 nM, respectively.
For the compound `C=C[Si](C)(C)O`, the MLC in [9] came out at 1.23%; in series [10] it was 1.04%; in series [11], 1%; in series [12], 1.32%.
As to `c1ccc(CN2CC[Si]3(CCCc4ccccc43)CC2)cc1`, the Ki amounted to 1.1 nM in series [4] and 243 nM in series [5]. The Ratio Ki in series [7] turned out to be 221.
`c1ccc(CCN2CC[Si]3(CCCc4ccccc43)CC2)cc1`: the Ki came to 2.9 nM in series [4] and 39 nM in series [5].
Consider `c1ccc(CCN2CCC3(CCCc4ccccc43)CC2)cc1`, for which the Ki in series [4] is 8 nM; in series [5], 34 nM.
As to `COc1ccc(C(CN(C)C)[Si]2(O)CCCC2)cc1` (racemic), the IC50 in series [17] worked out at 904 nM; in [18] it was 275 nM; in series [19], 707 nM.
`COC(=O)/C(=N/NC(=O)c1ccc(CO[Si](C)(C)C(C)(C)C)o1)c1ccccc1` returned an IC50 in series [20] of 13.3 µg/mL (≈ 31.9 µM).
Turning to `C[Si](C)(O)c1ccccc1`, the MLC in [9] came to 0.27%; in series [10], 0.26%; in [11], 0.35%; in series [12], 0.42%.
Consider `CCC(C)(C)O` [AMYLENE HYDRATE], for which the MLC in series [9] amounted to 5.09%; in [10] it was 4.17%; in series [11], 3.96%; in series [12] it was 5.67%.
On the same counts, the results for `CC[Si](C)(C)O` are 1.04%, 0.8%, 0.87% and 1.14%.
In the case of `CC(C)OC(=O)/C(=N/NC(=O)c1ccc(CO[Si](C)(C)C(C)(C)C)o1)c1ccccc1`, the IC50 in series [21] came out at 6.4 µg/mL (≈ 14.4 µM); in series [20], 3.6 µg/mL (≈ 8.1 µM).
As for `CCOc1cc(Cl)c(C(=O)NC(=O)Nc2nc3c(s2)C[Si](C)(c2c(OC)cccc2OC)CC3)cc1N1CCOCC1` (centres undefined), the concentration for a half-maximal effect (EC50) in series [1] was 1200 nM; in series [2] it was 1300 nM. Also, the logD in series [3] stood at 4.6.
As for `C=CC(C)(C)O`, the MLC in [9] was found to be 5.23%; in series [10], 4.37%; in series [11], 3.67%; in series [12] it was 5.63%.
In the case of `COc1ccc(CN2CCC3(CCCc4ccccc43)CC2)cc1`, the figures for the Ki in series [4] and in series [5] were 3.8 nM and 206 nM, respectively.
Turning to `CC(C)CCN1CCC2(CCCc3ccccc32)CC1`, the inhibitory constant (Ki) in [4] was determined as 1.8 nM; in series [5], 5.5 nM.
For the compound `CCOC(=O)/C(=N/NC(=O)c1ccc(CO[Si](C)(C)C(C)(C)C)o1)c1ccccc1`, the IC50 in series [21] is 8.6 µg/mL (≈ 20 µM); in series [20], 13.3 µg/mL (≈ 30.9 µM).
